Reference: publication PMC7822874, “Chemoprotective antimalarials identified through quantitative high-throughput screening of Plasmodium blood and liver stage parasites” (Scientific Reports, 2021)
Where two headings read alike, the source gives them in different places.

Assays:
HepG2-A16-CD81EGFP cells = conditions: average of 2 wells; for HepG2 1uM growth rep1 / HepG2 1uM growth rep2: HepG2, 1 µM compound treatment (10 mM stocks); for HepG2 1uM growth rep1 / HepG2 3uM growth rep1: replicate 1, normalized; for HepG2 1uM growth rep2 / HepG2 3uM growth rep2: replicate 2, normalized; for HepG2 3uM growth rep1 / HepG2 3uM growth rep2: HepG2, 3 µM compound treatment (10 mM stocks)
[1] = test system: P. berghei-ANKA-GFP-LucCON liver stage parasites in HepG2-A16-CD81EGFP cells; assay: P. berghei liver stage Pb-Luc assay, Method 1 (UCSD, 1536-well); type: cell-based, Plasmodium berghei; conditions: Plasmodium berghei, 48 h, P. berghei liver stage, average of 2 wells on a 1536 well plate; for activity at 1 µM: 1 µM compound treatment (10 mM stocks); for activity at 3 µM: 3 µM compound treatment (10 mM stocks)
[2] = test system: Plasmodium falciparum Dd2 asexual blood stage parasites; assay: microbe, parasite or virus in culture; parameters: species or system Plasmodium falciparum Dd2 in human erythrocytes; single determination (one 11-point concentration-response curve); conditions: Plasmodium falciparum, DD2, Erythrocyte, 72 h; read-out: AC50
[3] = replicate 1, normalized, read-out: PbLuc 1uM growth rep1
[4] = replicate 2, normalized, read-out: PbLuc 1uM growth rep2
[5] = replicate 1, normalized, read-out: PbLuc 3uM growth rep1
[6] = replicate 2, normalized, read-out: PbLuc 3uM growth rep2

SMILES | HepG2 1uM growth rep1 (HepG2-A16-CD81EGFP cells) [%] | HepG2 1uM growth rep2 (HepG2-A16-CD81EGFP cells) [%] | HepG2 3uM growth rep1 (HepG2-A16-CD81EGFP cells) [%] | HepG2 3uM growth rep2 (HepG2-A16-CD81EGFP cells) [%] | activity at 1 µM [1, 3] [%] | activity at 1 µM [1, 4] [%] | activity at 3 µM [1, 5] [%] | activity at 3 µM [1, 6] [%] | AC50 [2] [nM]
CCN(CC)CCN1C(=O)c2ccccc2NC1c1ccc(Br)cc1 (stereo not drawn) [MLS000723891-01] | 103 | 94 | 84 | 91 | 82 | 70 | 13 | 21 | 1500
N#Cc1c(N2CCN(c3ccc(F)cc3)CC2)nc(N)c2c(N)nc3c(c12)CC(=O)N3C1CC1 [MLS001003889-01] | 108 | 97 | 85 | 94 | 114 | 88 | 44 | 56 | 668
CCCCc1c(C)c(C#N)c2nc3ccccc3n2c1Nc1c(C)n(C)n(-c2ccccc2)c1=O [MLS000555448-01] | 92 | 93 | 87 | 94 | 131 | 125 | 114 | 127 | 2660
Cc1ccccc1C1C(C#N)=C2N=C(N)c3c(sc4c3CCCCC4)N2C2=C1C(=O)CCC2 (stereo not drawn) [MLS000543544-01] | 94 | 95 | 90 | 96 | 129 | 99 | 79 | 94 | 2660
COc1ccc([C@@]2(C(C)C)ON(c3ccccc3C(F)(F)F)C2=O)cc1 [MLS002206606-01] | 102 | 93 | 83 | 85 | 98 | 100 | 88 | 122 | 4220
Clc1ccc2c(N/N=C/c3cccc(Br)c3)ccnc2c1 [MLS000336198-01] | 83 | 80 | 87 | 87 | 63 | 77 | 45 | 62 | 10600
COc1ccc(Nc2cc(C)nc(NCc3ccccc3)n2)cc1 [MLS000768693-01] | 90 | 91 | 82 | 84 | 94 | 74 | 21 | 35 | 13300
COc1ccc(NC(=O)C(c2ccc(Cl)cc2)C(C)C)cn1 (stereo not drawn) [MLS001149289-01] | 104 | 98 | 90 | 87 | 131 | 130 | 155 | 159 | 1880
O=C(Nc1ccc(S(=O)(=O)N2CCOCC2)cc1)c1cc(-c2cc(Cl)ccc2O)n[nH]1 [MLS000778989-01] | 107 | 100 | 70 | 76 | 131 | 90 | 37 | 31 | 2660
